Reference: US20110130428A1, “Sublingual Compositions Comprising (2S) - (4E) -N-Methyl-5- (3- (5-Isopropoxypyridin) YL)-4-Penten-2-Amine” (ASTRAZENECA AB, priority 2008, published 2011)
Where two headings read alike, the source gives them in different places.

Assays:
in vivo = details: male, beagle, dog, 13 mg; for AUC(0-t): AUC (0-8 h)
Procedure: (§3) Two male Beagle dogs weighing 13-15 kg were used in the study. At one occasion the dogs were administered the sublingual composition under the tongue (i.e. as intended) and at the other occasion, after a washout period of 7 days, they were given the sublingual composition orally (i.e. into the stomach by gavage together with 40 ml of water).
(§4) The dogs were fasted overnight and until four hours after dose administration. Water was allowed ad lib until one hour before dosing and after three hours following dosing. To minimize the chance of swallowing during the sublingual study occasion, the dogs were anesthetized by intravenous bolus injection of Diprivan (10 mg/ml, AstraZeneca, Sweden) 0.8-1 ml/kg, followed by intubation, connection to a respiratory ventilator (Servo ventilator 900C, Siemens-Elema AB, Sweden) and capnograph (RespSense, MedAir AB, Sweden) and given additional anesthesia with 1.5% Isofluran (Isoba Vet., Schering-Plough AB, Sweden). The dogs were kept anesthetized for one hour after the administration of the sublingual composition under the tongue. The dogs were not anesthetized during the oral administration occasion.
(§5) Venous blood samples (2 mL) were collected before (0) and after 5, 15, 30, 45 minutes, 1.0, 1.5, 2.0, 3.0, 4.0, 6.0 and 8.0 hours after dosing. The samples were collected into vacuum tubes (BD Vacutainer K2-EDTA, Becton&Dickinson AB, Sweden), placed on ice and centrifuged for 10 minutes (4° C., 1500 g) within 30 minutes after sampling. The plasma was then transferred to 1.8 ml Nunc Cryo tubes (InterMed A/S, Denmark) and frozen (−20° C.) pending analysis.
(§6) The plasma samples (50 μL) were analyzed for Compound A and its metabolite Compound B by a standard LC-MS/MS analytical method. The determinations of the concentration of Compound A and Compound B in plasma was performed by liquid-liquid extraction followed by reversed-phase liquid chromatography and tandem mass spectrometry. Determinations of both Compound A and Compound B were performed in the range 0.8 to 200 nmol/L. Samples outside the range of determination were diluted up to 10 times. Quality control samples at three concentrations were interspersed with the study samples at 2.40, 16.0 and 160 nmol/L. The internal standard used in the assay was Deuterium labeled Compound A (AstraZeneca R&D, Sweden).
(§7) Exposure of animals to Compound A and it's metabolite Compound B expressed as area under the curve from time zero to the last sampling time, AUC(0-8 h), was obtained by means of non compartmental analysis in WinNonlin (version 4.0, Pharsight Corporation, USA). The maximum concentration, Cmax, and time of maximum concentration, Tmax, were direct observations from the plasma concentration versus time data. AUC(0-8 h) was calculated by means of the linear up-log down method. The area under the curve from zero to infinity, AUC, was calculated in a similar manner, with extrapolation from time of the last observed concentration, tlast, to infinity by adding the ratio of Cpred (predicted plasma concentration at tlast) and terminal slope factor. The terminal slope factor and subsequently the terminal half life (T1/2) were estimated in WinNonlin by log linear regression of the terminal phase (4 data points were used) of the plasma concentration time curve.

[1] = male, beagle, dog, in vivo, 13 mg
Procedure: as §3, §4, §5, §6, §7

muscle-type NNRs = test: Nicotinic function in cell preparations expressing muscle-type NNRs; type: cell-based; details: skeletal muscle NNR
Text: (§1) It is advantageous that the treatment or prevention of diseases, disorders and conditions occurs without appreciable adverse side effects (e.g., significant increases in blood pressure and heart rate, significant negative effects upon the gastro-intestinal tract, and significant effects upon skeletal muscle). […] Thus, Compound A is capable of treating and/or preventing diseases, disorders and conditions without eliciting significant side effects associated with activity at ganglionic and neuromuscular sites.

[2] = Animal study: plasma pharmacokinetics of Compound A and metabolite Compound B after sublingual or oral administration of the Compound A solid composition; details: for Cmax, relative difference in exposure sublingual compared to oral / AUC, relative difference in exposure sublingual compared to oral: 100*sublingual value/oral value; for AUC, relative difference in exposure sublingual compared to oral: AUC for Compound A; for AUC(0-t) / AUC / Cmax / Tmax / half-life / concentration at 5 min: male, beagle, dog, plasma, 13 mg; for AUC(0-t): AUC (0-8 h); for AUC(0-t) / AUC / Cmax / Tmax / half-life: Example 6 tablet; for AUC: zero to infinity; for half-life: T½; for concentration at 5 min: plasma concentration at 5 minutes
Procedure: as §3, §4, §5, §6, §7

[3] = tested on: NNR subtypes that characterize the human ganglia; test: Nicotinic function in adrenal chromaffin tissue; type: cell-based; details: ganglionic NNR subtypes
Text: as §1

[4] = Intestinal permeability (fraction of an oral dose absorbed); type: in vivo
Text: (§2) Thus, the dissolution and intestinal permeability is not the reason for the observed high intersubject variability in plasma concentrations of Compound A.

[5] = dose range 2 to 320 mg, healthy volunteers; cited from earlier work
[6] = Solubility / Biopharmaceutical Classification System (BCS) class; type: physicochemical
Text: as §2

[7] = Beagle dogs, cited from earlier work
[8] = Sublingual, Subject 1, anesthetized dog, 13 mg Compound A
[9] = Sublingual, Subject 2, anesthetized dog, 13 mg Compound A
[10] = po, Oral (gavage), Subject 1, dog, 13 mg Compound A
[11] = po, Oral (gavage), Subject 2, dog, 13 mg Compound A

Structure (SMILES): CC(C)Oc1cncc(/C=C/C[C@H](C)N)c1 [Compound B, (4E)-5-(3-(5-isopropoxypyridin)yl)-4-penten-2-amine]
- AUC(0-t) (in vivo): 0.51 µM·h
- Cmax (in vivo): 99 nM
- Tmax (in vivo): 4 h
- AUC(0-t) (in vivo; po): 1 µM·h
- Cmax (in vivo; po): 210 nM
- Tmax (in vivo; po): 1.5 h
- AUC (0-8 h) [1]: 0.59 µM·h
- Cmax [1]: 110 nM
- Tmax [1]: 6 h
- decrease of exposure (Cmax, AUC 0-8 h) following sublingual compared to oral administration of Compound A [1]: 30-70%
- AUC (0-8 h) ([1]; po): 1 µM·h
- Cmax ([1]; po): 230 nM
- Tmax ([1]; po): 1 h

Structure (SMILES): CN[C@@H](C)C/C=C/c1cncc(OC(C)C)c1 [Compound A, (2S)-(4E)-N-methyl-5-(3-(5-isopropoxypyridin)yl)-4-penten-2-amine]
- ability to elicit nicotinic function in cell preparations expressing muscle-type NNRs (muscle-type NNRs): lack of ability to elicit nicotinic function
- Cmax, relative difference in exposure sublingual compared to oral ([2]; Subject 1, dog): 740 % difference
- AUC, relative difference in exposure sublingual compared to oral ([2]; Subject 1, dog): 550 % difference
- Cmax, relative difference in exposure sublingual compared to oral ([2]; Subject 2, dog): 510 % difference
- AUC, relative difference in exposure sublingual compared to oral ([2]; Subject 2, dog): 520 % difference
- AUC(0-t) [2, 8]: 2 µM·h
- AUC(0-t) [2, 9]: 1.5 µM·h
- AUC [2, 8]: 2.1 µM·h
- AUC [2, 9]: 1.5 µM·h
- Cmax [2, 8]: 1400 nM
- Cmax [2, 9]: 610 nM
- Tmax [2, 8]: 0.5 h
- Tmax [2, 9]: 1 h
- half-life [2, 8]: 1.3 h
- half-life [2, 9]: 1.4 h
- concentration at 5 min ([2]; other: sublingual, 5 minutes after sublingual administration, Subject 1, dog): ~200 nM
- concentration at 5 min ([2]; other: sublingual, 5 minutes after sublingual administration, Subject 2, dog): ~60 nM
- AUC(0-t) [2, 10]: 0.37 µM·h
- AUC(0-t) [2, 11]: 0.28 µM·h
- AUC [2, 10]: 0.38 µM·h
- AUC [2, 11]: 0.29 µM·h
- Cmax [2, 10]: 190 nM
- Cmax [2, 11]: 120 nM
- Tmax ([2]; po, Oral (gavage), Subject 1, dog, 13 mg (as base) Compound A hydroxybenzoate salt): 0.75 h
- Tmax [2, 11]: 1 h
- half-life [2, 10]: 1.3 h
- half-life [2, 11]: 1.3 h
- concentration at 5 min ([2]; po, 5 minutes after oral administration, Subject 1, dog): ~2 nM
- concentration at 5 min ([2]; po, 5 minutes after oral administration, Subject 2, dog): ~1.5 nM
- ability to elicit nicotinic function in adrenal chromaffin tissue [3]: lack of ability to elicit nicotinic function
- intestinal permeability: oral dose absorbed [4]: more than 90%
- degree of exposure after oral administration [5]: intersubject variability in the degree of exposure
- Biopharmaceutical Classification System (BCS) class [6]: Class I
- solubility ([6]; highest dose strength is easily dissolved in 250 ml of aqueous media at all physiological pH values): very good solubility
- oral bioavailability ([7]; oral): about 30%
- total plasma clearance relative to hepatic blood flow [7]: markedly higher than the hepatic blood flow
